Where a name gives a salt, the structure may show the parent alone.
System: Fusarium solani
Test: Mycelial growth test
Format: cell-based
Settings: for inhibition at 5 ppm / inhibition at 10 ppm / inhibition at 20 ppm / inhibition at 40 ppm: Fusarium solani, 72 h; for inhibition at 5 ppm / inhibition at 10 ppm / inhibition at 20 ppm / Percent Fungus Growth Inhibition: PS, 72 hours; for inhibition at 5 ppm / inhibition at 10 ppm / inhibition at 20 ppm: read-out: Percent Fungus Growth Inhibition; for inhibition at 40 ppm: read-out: Percent Fungus Growth Inhibition, PS, 40 ppm, 72 hours

Row | Structure (SMILES) | inhibition at 5 ppm | inhibition at 10 ppm (10 ppm) | inhibition at 20 ppm (20 ppm) | inhibition at 40 ppm | Percent Fungus Growth Inhibition (10 ppm) | Percent Fungus Growth Inhibition (10 ppm, hydrochloride) | Percent Fungus Growth Inhibition (20 ppm, hydrochloride)
1 | Cc1cccc(Oc2nsnc(Cl)c2=O)c1 [Compound 21, 3-chloro-5-(3-methylphenoxy)-4H--1,2,6-thiadiazin-4-one] | 33% | 62% | 58% | 100% |  |  | 
2 | Cc1ccccc1Oc1nsnc(Cl)c1=O [Compound 22, 3-chloro-5-(2-methylphenoxy)-4H--1,2,6-thiadiazin-4-one] | 17% | 67% | 83% | 100% |  |  | 
3 | Cc1ccc(Oc2nsnc(Cl)c2=O)c(C)c1 [Compound 23, 3-chloro-5-(2,4-dimethylphenoxy)-4H--1,2,6-thiadiazin-4-one] | 17% | 33% | 100% | 100% |  |  | 
4 | Cc1cccc(C)c1Oc1nsnc(Cl)c1=O [Compound 24, 3-chloro-5-(2,6-dimethylphenoxy)-4H--1,2,6-thiadiazin-4-one] | 33% | 83% | 100% | 100% |  |  | 
5 | Cc1cc(C)cc(Oc2nsnc(Cl)c2=O)c1 [Compound 25, 3-chloro-5-(3,5-dimethylphenoxy)-4H--1,2,6-thiadiazin-4-one] | 50% | 100% | 100% | 100% |  |  | 
6 | Nc1ccc(Oc2nsnc(Cl)c2=O)cc1 [Compound 26, 5-(4-aminophenoxy)-3-chloro-4H--1,2,6-thiadiazin-4-one] | 13% |  | 17% | 42% | 33% |  | 
7 | Nc1ccc(Oc2nsnc(Cl)c2=O)cc1 [Compound 27, 5-(4-aminophenoxy)-3-chloro-4H--1,2,6-thiadiazine-4-one hydrochloride] |  |  |  |  |  | 8% | 13%
8 | CNC(=O)Nc1ccc(Oc2nsnc(Cl)c2=O)cc1 [Compound 28, 3-chloro-5-[4-(3-methylureido)-phenoxy]-4H--1,2,6-thiadiazin-4-one] | 0% | 17% | 17% | 13% |  |  | 
9 | O=C(Nc1ccccc1)Nc1ccc(Oc2nsnc(Cl)c2=O)cc1 [Compound 29, 3-chloro-5-[4-(3-phenylureido)-phenoxy]-4H--1,2,6-thiadiazin-4-one] | 0% | 0% | 0% | 13% |  |  | 
10 | O=c1c(Cl)nsnc1Oc1c(Cl)cc(Cl)cc1Cl [Compound 30, 3-chloro-5-(2,4,6-trichlorophenoxy)-4H--1,2,6-thiadiazin-4-one] | 52% | 81% | 90% | 100% |  |  | 
11 | O=c1c(Cl)nsnc1Oc1c(Cl)c(Cl)c(Cl)c(Cl)c1Cl [Compound 31, 3-chloro-5-(pentachlorophenoxy)-4H--1,2,6-thiadiazine-4-one] | 42% | 42% | 58% | 58% |  |  | 
12 | O=c1c(Cl)nsnc1Oc1cccc2ccccc12 [Compound 32, 3-chloro-5(1-naphthoxy)-4H-1,2,6-thiadiazin-4-one] | 100% | 100% | 100% | 100% |  |  | 
13 | O=c1c(Cl)nsnc1Oc1ccccc1Br [Compound 34, 3-chloro-5-(2-bromophenoxy)-4H-1,2,6,-thiadiazin-4-one] | 13% | 43% | 50% | 100% |  |  | 
14 | O=c1c(Cl)nsnc1Oc1ccc(O)cc1 [Compound 35, 3-chloro-5-(4-hydroxyphenoxy)-4H-1,2,6-thiadiazin-4-one] | 30% | 35% | 60% | 80% |  |  | 
15 | O=C(Nc1ccccc1)Oc1ccc(Oc2nsnc(Cl)c2=O)cc1 [Compound 37, 3-chloro-5-[4-(phenylaminocarbonyloxy)phenoxy]-4H-1,2,6,-thiadiazin-4-one] | 26% | 16% | 26% | 42% |  |  | 
16 | O=C(OCc1ccccc1)Oc1ccc(Oc2nsnc(Cl)c2=O)cc1 [Compound 38, 3-chloro-5-[4-(phenylmethoxycarbonyloxy)phenoxyl]-4H-1,2,6-thiadiazin-4-one] | 10% | 20% | 30% | 35% |  |  | 
17 | C[S+]([O-])c1ccc(Oc2nsnc(Cl)c2=O)cc1 (stereo not drawn) [Compound 40, 3-chloro-5-[(4-methylsulfinyl)phenoxy]-4H-1,2,6,-thiadiazin-4-one] | 5% | 16% | 26% | 53% |  |  | 
18 | CC(=O)Nc1cccc(Oc2nsnc(Cl)c2=O)c1 [Compound 42, 3-[(3-N--acetylamino)-phenoxy]-5-chloro-4H--1,2,6-thiadiazin-4-one] | 31% | 19% | 13% | 38% |  |  | 
19 | CC(=O)Nc1ccccc1Oc1nsnc(Cl)c1=O [Compound 43, 3-[(2-acetylamino)-phenoxy]-5-chloro-4H--1,2,6-thiadiazin-4-one] | 0% | 0% | 0% | 0% |  |  | 
20 | O=c1c(Cl)nsnc1Oc1cccc(C(F)(F)F)c1 [Compound 44, 3-chloro-5-[(3-trifluoromethyl)phenoxy]-4H--1,2,6-thiadiazin-4-one] | 100% | 100% | 100% | 100% |  |  | 

Reference: patent publication US4450269A, “Mono-5-substituted-3-chloro-4H-1,2,6-thiadiazin-4-one antifungal agents” (FMC Corporation, priority 1980, dated 1984)
